Results as given in patent US20170209447A1, “Use of PNP Inhibitor to Treat Relapse of Malignancy after Hematopoietic Stem Cell Transplant” (Nitor Therapeutics, priority 2014, published 2017).

Experiments:
B16 tumors = experiment: PNPi as anticancer agent in mouse melanoma model; assay type: in vivo, C57BL/6 mice; details: cyclophosphamide 100 mg/kg IP single dose; FIG. 6
Method: Evaluation of PNPi as Anticancer Agent in Mouse Melanoma Model.
Treatment with the NTR001 was initiated on day 6 after injection of tumor cells. Tumor volume and survival were recorded every 3-4 days.

human TLR2 = molecular target: T1, human TLR2 (Homo sapiens, UniProt O60603); experiment: TLR ligand screening: NF-κB SEAP reporter in HEK293 cells expressing TLR2; assay type: cell-based; details: FIG. 2
T1 construct: expressed in transfected cells; host or cells: HEK293
T1 sequence (O60603 21-784): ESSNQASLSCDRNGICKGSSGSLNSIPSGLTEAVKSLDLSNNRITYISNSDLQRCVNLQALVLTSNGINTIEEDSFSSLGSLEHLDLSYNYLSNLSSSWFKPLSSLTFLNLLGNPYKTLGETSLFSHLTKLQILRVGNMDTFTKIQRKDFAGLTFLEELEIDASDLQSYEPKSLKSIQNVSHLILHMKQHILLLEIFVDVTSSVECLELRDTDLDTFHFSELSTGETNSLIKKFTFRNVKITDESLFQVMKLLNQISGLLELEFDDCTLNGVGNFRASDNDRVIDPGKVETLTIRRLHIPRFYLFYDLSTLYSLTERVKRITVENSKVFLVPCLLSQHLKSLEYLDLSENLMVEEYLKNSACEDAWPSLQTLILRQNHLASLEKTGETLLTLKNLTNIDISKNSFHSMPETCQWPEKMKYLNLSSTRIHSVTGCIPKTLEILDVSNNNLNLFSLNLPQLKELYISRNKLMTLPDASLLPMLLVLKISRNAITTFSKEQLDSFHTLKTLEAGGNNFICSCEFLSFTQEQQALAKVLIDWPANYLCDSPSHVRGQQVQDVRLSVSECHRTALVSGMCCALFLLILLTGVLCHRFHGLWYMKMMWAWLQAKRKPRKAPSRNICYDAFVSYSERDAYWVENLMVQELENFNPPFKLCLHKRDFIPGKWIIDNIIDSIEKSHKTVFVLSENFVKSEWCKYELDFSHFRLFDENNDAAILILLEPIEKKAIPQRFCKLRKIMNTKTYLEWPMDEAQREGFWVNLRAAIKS
Method: (§1) Toll-Like Receptor (TLR) Ligand Screening: In-vitro Activity of the PNPi, Guanosine and Inosine on Seven Different Human TLRs (TLR2, 3, 4, 5, 7, 8 and 9) as a Potential Agonist.
(§2) Method: TLR stimulation is tested by assessing NF-KB activation in HEK293 cells expressing a given TLR. The Secreted Embryonic Alkaline Phosphatase (SEAP) reporter is under the control of a promoter inducible by the transcription factor NF-κB.
(§3) This reporter gene allows the monitoring of signaling through the TLR, based on the activation of NF-κB. The compounds are evaluated at one concentration and compared to control ligands. This step is performed in triplicate.

human TLR4 = molecular target: T2, human TLR4 (Homo sapiens, UniProt O00206); experiment: TLR ligand screening: NF-κB SEAP reporter in HEK293 cells expressing TLR4; assay type: cell-based; details: FIG. 2
T2 construct: expressed in transfected cells; host or cells: HEK293
T2 sequence (O00206 24-839): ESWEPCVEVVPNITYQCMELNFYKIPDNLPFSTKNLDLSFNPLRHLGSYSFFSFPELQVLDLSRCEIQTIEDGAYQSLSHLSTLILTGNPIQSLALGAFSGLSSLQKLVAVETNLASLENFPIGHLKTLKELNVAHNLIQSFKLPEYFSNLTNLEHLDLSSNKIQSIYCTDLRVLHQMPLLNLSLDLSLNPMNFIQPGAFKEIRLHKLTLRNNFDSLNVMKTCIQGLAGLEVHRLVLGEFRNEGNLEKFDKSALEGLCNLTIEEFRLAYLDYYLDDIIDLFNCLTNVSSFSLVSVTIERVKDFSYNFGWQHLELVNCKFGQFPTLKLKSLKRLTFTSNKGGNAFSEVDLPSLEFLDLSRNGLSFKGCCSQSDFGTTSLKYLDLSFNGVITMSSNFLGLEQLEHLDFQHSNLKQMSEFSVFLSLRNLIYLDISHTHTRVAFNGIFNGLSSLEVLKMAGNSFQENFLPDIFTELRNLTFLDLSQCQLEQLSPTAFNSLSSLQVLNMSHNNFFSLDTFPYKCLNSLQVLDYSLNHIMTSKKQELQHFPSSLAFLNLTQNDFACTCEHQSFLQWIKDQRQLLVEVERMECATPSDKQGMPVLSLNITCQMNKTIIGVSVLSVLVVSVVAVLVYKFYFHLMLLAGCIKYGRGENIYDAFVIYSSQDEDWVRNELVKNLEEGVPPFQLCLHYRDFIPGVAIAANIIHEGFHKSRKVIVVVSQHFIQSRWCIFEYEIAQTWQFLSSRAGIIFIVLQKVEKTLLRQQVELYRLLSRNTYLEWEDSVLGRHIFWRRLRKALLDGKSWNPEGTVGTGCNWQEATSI
T2 sequence (Q9Y6Y9 17-160 partner limits assumed): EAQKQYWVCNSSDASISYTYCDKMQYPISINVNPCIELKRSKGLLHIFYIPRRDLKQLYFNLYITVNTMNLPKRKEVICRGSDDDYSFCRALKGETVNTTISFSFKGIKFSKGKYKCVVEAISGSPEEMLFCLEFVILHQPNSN
Method: as §1, §2, §3

tetanus toxoid vaccine = experiment: PNPi as adjuvant in tetanus toxoid vaccine efficacy study (tetanus toxoid mouse model); assay type: in vivo, mice; details: compared to vehicle treated group
Method: This Example Evaluates PNPi as an Adjuvant in Tetanus Toxoid Vaccine Efficacy Study.
Method: Tetanus toxoid (TT) was used to vaccinate mice thrice, two weeks apart. Mice were treated by oral administration of compounds NTR001 and NTR002 and serum was collected at various time points for antibody titer and interferon-g analysis. Mice in Groups 2-6 (Table 2) are vaccinated subcutaneously with 0.1 ml tetanus toxoid vaccine on DAYS 0, 14 and 28. Mice in Group 1 (Table 1) received no vaccine. Antibody titers for DAYS 38 are determined by ELISA using tetanus toxoid coated microtiter plates and anti-mouse conjugate. Sera from DAY 30 are assayed by ELISA for interferon-g.

[1] = tested on: L. monocytogenes (ATCC Strain35152, hemolytic substrain); details: 30 mg/kg PO or IP, or 2 mg/kg drinking water; 1×10^6 CFU i.v.; FIGS. 7 and 9
[2] = Guanosine 100 uM in combination with NTR001 (10 uM) and/or Inosine (100 uM)
[3] = one concentration: Guanosine 100 uM, NTR001 10 uM, Inosine 100 uM, HEK293, triplicate

SMILES: O=P1(N(CCCl)CCCl)NCCCO1 (centres unmarked) [Cyclcophosphamide, cyclophosphamide, reference compound]
- survival (B16 tumors): 30%

SMILES: Nc1nc2c(ncn2[C@@H]2O[C@H](CO)[C@@H](O)[C@H]2O)c(=O)[nH]1 [Guanosine, guanosine]
- stimulatory effect on human TLR2 (NF-κB activation), combination (human TLR2; [2]): significant stimulatory effect
- stimulatory effect on human TLR2 (NF-κB activation) (human TLR2; [3]): significant stimulatory effect
- stimulatory effect on human TLR4 (NF-κB activation), combination (human TLR4; [2]): significant stimulatory effect
- stimulatory effect on human TLR4 (NF-κB activation) (human TLR4; [3]): significant stimulatory effect

SMILES: O=c1[nH]cnc2c(CN3C[C@H](CO)[C@@H](O)C3)c[nH]c12 [NTR002, 1,5-dihydro-7-[[(3R,4R)-3-hydroxy-4-(hydroxymethyl)pyrrolidin-1-yl]methyl]-4H-pyrrolo[3,2-d]pyrimidin-4-one]
- serum interferon-g levels (tetanus toxoid vaccine; day 30, ELISA, high dose group 60 mg/kg p.o., FIG. 4): elevated
- serum tetanus toxoid antibody titers (tetanus toxoid vaccine; day 38, ELISA, p.o. 30 mg/kg (6 days of treatment) and 60 mg/kg (3 days of treatment), FIG. 3): significantly elevated
- weight loss [1]: significant decrease
